{"source": "patent US5789447A", "about": "“Nitric oxide releasing compounds as protective agents in ischemia reperfusion injury” (priority 1995, dated 1998)", "key": {"rat mesenteric venules": {"test_system": "rat mesenteric venules", "assay": "Venular diameter, RBC velocity and wall shear rate after ischemia reperfusion", "assay_type": "in vivo", "conditions": "100 μM in superfusate", "description": "(§1) Male Sprague-Dawley rats weighing 200-250 g apiece were maintained on a purified laboratory diet and fasted for 24 hours prior to each experiment. The animals were initially anesthetized with pentobarbital (65 mg/kg body weight) and then a tracheotomy was performed to facilitate breathing during subsequent experimentation. The right carotid artery was cannulated and system arterial pressure was measured with a Statham P23A pressure transducer (Oxnard, Calif.) connected to the carotid artery cannula. Systemic blood pressure and heart rate were continuously recorder with a Grass physiologic recorded (Grass Instruments).\n(§2) Rats were placed in a supine position on an adjustable plexiglass microscope stage and the mesentery was prepared for microscopic observation as described previously (Asako et al., Gastroenterology, 103, 146-152 (1992); Kurose et al., Circ. Res., in press (1993)). Briefly, the mesentery was draped over a non-fluorescent coverslip that allowed for observation of a 2 cm^2 segment of tissue. The exposed bowel wall was covered with Saran Wrap (Dow Chemical Co.) and the mesentery was superfused with bicarbonate-buffered saline (pH 7.4, 37° C.) that was bubbled with a mixture of 5% CO2 and […].\n(§3) An inverted microscope (TMD-25, Diaphoto, Nikon, Tokyo, Japan) with a 40x objective lens (Fluor, Nikon) was used to observe the mesenteric microcirculation. The mesentery was transilluminated with a 12 V-100 W direct current-stabilized light source. A video camera (VK-C150, Hitachi, Ibaragi, Japan) mounted on the microscope projected the image onto a color monitor (PVM-2030, Sony, Tokyo, Japan) and the images were recorded using a videocassette record (NV8950, Panasonic, Tokyo, Japan). A video time-date generator (WJ810, Panasonic) projected the time, date and stopwatch function onto the monitor.\n(§4) Single unbranched venules with diameters ranging between 25 and 35 μm and length greater than 150 μm were selected for study. Venular diameter (DV) was measured either on- or off-line using a video caliper (Microcirculation Research Institute, Texas A&M University, College Station, Tex.). Red blood cell centerline velocity (VRBC) was measured in venules using an optical Dopper velocimeter (Microcirculation Research Institute, Texas A&M University, College Station, Tex.). The velocimeter was calibrated against a rotating glass disk coated with red blood cells. Venular blood flow was calculated from the product of mean red blood cell velocity (Vmean =centerline velocity/1.6; Davis, Microvasc. Res., 34, 223-230 (1987)) and microvascular cross-sectional area, assuming cylindrical geometry. Wall shear rate (γ) was calculated based on the Newtonian definition γ=8(Vmean /D).\nAfter all parameters measured on-line were in a steady state, images from the mesenteric preparation were recorded on videotape for 10 min. […] The mesentery was made ischemic for zero (sham ischemia) or 20 min. After the ischemic period, the ligation was gently removed. In some experiments, either sodium nitroprusside (SNP, 100 μM, Sigma Chemical), spermine-NO (SpNO, 100 μM), SIN-1 (100 μM), spermine (SP, 100 μM, Sigma Chemical), or NG-nitro-L-arginine methyl ester (L-NAME, 100 μM, Sigma Chemical) was added to the superfusate and the same protocol was employed. Spermine-NO and SIN-1, which are NO donors, were obtained from the National Institutes of Health, Bethesda, Md. […]"}, "[1]": {"test_system": "Chinese hamster V79 lung fibroblasts", "assay": "V79 clonogenic survival, hypoxanthine/xanthine oxidase (HX/XO) cytotoxicity", "conditions": "1 mM", "description": "Chinese hamster V79 lung fibroblasts were cultured in F12 medium supplemented with 10% fetal calf serum and antibiotics. Cell survival was assessed by clonogenic assay with 85-95% plating efficiency. Stock cultures of exponentially growing cells were trypsinized, rinsed, and plated (7×10^5 cells/dish) into a number of 100 cm^2 petri dishes and incubated 16 hr at 37° C. prior to experimental protocols.\nIt has been shown that exposure of V79 cells to hydrogen peroxide results in dose-dependent cytotoxicity (Mitchell et al., supra).\nHX and XO were purchased from Boehringer Co. (Indianapolis, Ind.). Nitrite, diethylamine, sulfinamide, diethylenetriaminepentaacetic acid (DETAPAC) and N-(1-naphthyl)ethylenediaminedihydrogenchloride (NEDD) were purchased from Aldrich (Milwaukee, Wis.). Cytosine-β-D-arabinofuranoside and ferricytochrome c were purchased from Sigma (St. Louis, Mo.). DEA/NO and SPER/NO were synthesized as previously described (Maragos et al., (1991), supra).\nExponentially growing cultures of Chinese hamster V79 fibroblasts were exposed to either HX/XO (final concentration of HX was 0.5 mM; 0.08 units/ml XO were used) for various amounts of time (FIG. 1A) or to various concentrations of hydrogen peroxide for one hour (FIG. 1B). […] Additionally, 1 mM DEA/NO was added to medium in the absence of cells, incubated at 37° C. for 1 hr or 16 hrs, and then added just prior to the addition of hydrogen peroxide to evaluate the effects of DEA/NO which had released NO. After treatment, cell monolayers were rinsed twice with phosphate-buffered saline (PBS), trypsinized, counted and plated in triplicate for macroscopic colony formation. Each dose determination was plated in triplicate and experiments were repeated a minimum of two times. Plates were incubated for 7 days, after which colonies were fixed with methanol/acetic acid (3:1), stained with crystal violet, and counted. Colonies containing more than 50 cells were scored."}, "small intestine": {"test_system": "small intestine", "assay": "Water absorption in cat small intestine transplant", "assay_type": "in vivo, cats", "conditions": "during 120 min of reperfusion; 0.1 mmol; vs untreated; FIG. 10"}, "mesenteric venules": {"test_system": "mesenteric venules", "assay": "Albumin leakage across mesenteric venules after ischemia reperfusion", "assay_type": "in vivo, rat", "conditions": "10 min and 30 min after reperfusion; 100 μM; FIG. 4C", "description": "as §1, §2, §3\nas §4, with “The velocimeter was calibrated against a rotating glass disk coated with red blood cells.” left out\nAfter all parameters measured on-line were in a steady state, images from the mesenteric preparation were recorded on videotape for 10 min. […]"}, "[2]": {"assay": "NO release rate / half-life", "assay_type": "physicochemical", "conditions": "vs DEA/NO"}, "leukocytes": {"test_system": "leukocytes", "assay": "Leukocyte adherence and emigration after ischemia reperfusion (mesenteric venules)", "assay_type": "in vivo, rat", "conditions": "20 min ischemia, 10 and 30 min reperfusion; 100 μM; FIG. 4B", "description": "as §1, §2, §3, §4\nThe number of adherent leukocytes was determined off-line during playback of videotape images. A leukocyte was considered to be adherent to venular endothelium if it remained stationary for a period equal to or greater than 30 seconds (Granger et al., Am. J. Physiol., 257, G683-G688 (1989)). Adherent cells were expressed as the number per 100 μm length of venule. The number of emigrated leukocytes was also determined off-line during playback of videotape images. Any interstitial leukocytes present in the mesentery at the onset of the experiment were subtracted from the total number of leukocytes that accumulated during the course of the experiment. Leukocyte emigration was expressed as the number per field of view surrounding the venule. Platelet-leukocyte aggregates, which were visible within postcapillary venules, were quantitated and expressed as the number of aggregates crossing a fixed point within the venule over a 5 min period. Mast cells in the microvascular beds of the rat mesenteries were visualized by using 0.1% toluidine blue. The number of normal and degranulated mast cells was determined and the percentage of degranulated mast cells was calculated."}, "microvasculature [3]": {"test_system": "microvasculature", "assay": "Capillary pressure and vascular resistance in cat small intestine transplant", "assay_type": "in vivo, cats", "conditions": "FIG. 13"}, "microvasculature [4]": {"test_system": "microvasculature", "assay": "Lymph flow and lymph protein clearance in cat small intestine transplant", "assay_type": "in vivo, cats"}, "intestinal mucosa": {"test_system": "intestinal mucosa", "assay": "Intestinal blood to lumen 51Cr-EDTA clearance (mucosal permeability) in cat small intestine transplant", "assay_type": "in vivo, cats"}, "mast cells": {"test_system": "mast cells", "assay": "Degranulation of microvascular mast cells after ischemia reperfusion", "assay_type": "in vivo, rat", "conditions": "20 min ischemia, 30 min reperfusion; 100 μM; FIG. 7", "description": "as §1, §2\n(§5) An inverted microscope (TMD-25, Diaphoto, Nikon, Tokyo, Japan) with a 40x objective lens (Fluor, Nikon) was used to observe the mesenteric microcirculation. […] A video camera (VK-C150, Hitachi, Ibaragi, Japan) mounted on the microscope projected the image onto a color monitor (PVM-2030, Sony, Tokyo, Japan) and the images were recorded using a videocassette record (NV8950, Panasonic, Tokyo, Japan). […]\nas §4, with “The velocimeter was calibrated against a rotating glass disk coated with red blood cells.” left out\nThe number of adherent leukocytes was determined off-line during playback of videotape images. […] Adherent cells were expressed as the number per 100 μm length of venule. The number of emigrated leukocytes was also determined off-line during playback of videotape images. […] Leukocyte emigration was expressed as the number per field of view surrounding the venule. […]"}, "[5]": {"test_system": "platelet-leukocyte aggregates", "assay": "Platelet-leukocyte aggregates after ischemia reperfusion", "assay_type": "in vivo, rat", "conditions": "20 min ischemia, 30 min reperfusion; 100 μM; FIG. 6", "description": "as §1, with “Instruments). […]” for “Instruments).”\nas §5\nSingle unbranched venules with diameters ranging between 25 and 35 μm and length greater than 150 μm were selected for study. Venular diameter (DV) was measured either on- or off-line using a video caliper (Microcirculation Research Institute, Texas A&M University, College Station, Tex.). […] Wall shear rate (γ) was calculated based on the Newtonian definition γ=8(Vmean /D). […]"}}}
{"compound": "NCCCNCCCCN(CCCN)/[N+]([O-])=N/O", "note": "[SpNO, spermine-NO]", "values": [{"measurement": "reversal of decrease in RBC velocity after reperfusion", "setting": "rat mesenteric venules; in words", "value": "reversed the decreases"}, {"measurement": "reversal of decrease in wall shear rate after reperfusion", "setting": "rat mesenteric venules; in words", "value": "reversed the decreases"}, {"measurement": "RBC velocity", "setting": "rat mesenteric venules; 30 min after reperfusion", "value": "3.06 ± 0.28", "unit": "mm/sec"}, {"measurement": "Venular diameter", "setting": "rat mesenteric venules; 30 min after reperfusion", "value": "31.8 ± 2.1", "unit": "μm"}, {"measurement": "Wall Shear Rate", "setting": "rat mesenteric venules; 30 min after reperfusion", "value": "480 ± 27", "unit": "s⁻¹"}, {"measurement": "protection against HX/XO-induced cell killing", "setting": "[1]", "value": "protected V79 cells against HX/XO induced cytotoxicity but to a lesser extent than DEA/NO"}, {"measurement": "water absorption", "setting": "small intestine", "value": "increased significantly"}, {"measurement": "attenuation of albumin leakage", "setting": "mesenteric venules", "value": 70, "unit": "%"}, {"measurement": "NO release, times slower than DEA/NO", "setting": "[2]", "value": 40, "unit": "times"}, {"measurement": "reduction of number of emigrated leukocytes", "setting": "leukocytes", "value": "64-71%"}, {"measurement": "capillary pressure", "setting": "microvasculature [3]", "value": "Significant elevation"}, {"measurement": "lymph flow", "setting": "microvasculature [4]; FIG. 11", "value": "Increased lymph flow"}, {"measurement": "lymph protein clearance", "setting": "microvasculature [4]; FIG. 12", "value": "increased lymph protein clearance"}, {"measurement": "mucosal permeability (51Cr-EDTA clearance)", "setting": "intestinal mucosa; 6-hr hypothermic ischemia, 120 min reperfusion, FIG. 9", "value": "decreased"}, {"measurement": "51Cr-EDTA clearance", "setting": "intestinal mucosa; at 75 and 90 min, 0.1 mmol luminal perfusate", "value": "statistically significant decrease"}, {"measurement": "degranulation of microvascular mast cells", "setting": "mast cells", "value": "significantly inhibited"}, {"measurement": "platelet-leukocyte aggregate formation", "setting": "[5]", "value": "reduced"}]}
